Reference: US6165998A, “Antifungal agents” (Scriptgen Pharmaceuticals, Inc., priority 1998, dated 2000)
Values after ≈ are worked out from the molar mass of the structure shown. “Also recorded” adds a separate entry of the source. Like-named read-outs stand apart in the source and are kept apart here.

How the values were obtained:
[1] = system: fungal pathogens; assay: In vitro antifungal activity (MIC); type: cell-based
[2] = system: amphotericin-resistant strain; assay: Synergy with amphotericin B in amphotericin-resistant strain; type: cell-based
Excerpt: (§1) This synergy was not seen in an amphotericin-resistant strain. Subsequent experiments in a 2-way titration format confirmed the synergistic activity of the combination (FIG. 18). The synergy noted between these two agents was unique among the tested antifungal compounds, and was not noted for other promising compounds identified in the high throughput screen.

[3] = system: C. albicans; assay: MIC alone and with sub-MIC amphotericin B, C. albicans; type: cell-based, Candida albicans
Excerpt: as §1

[4] = system: wild type C. tropicalis; assay: MIC alone and with sub-MIC amphotericin B, C. tropicalis; type: cell-based, Candida tropicalis
Excerpt: as §1

[5] = target: T1, C. albicans RNA polymerase II (Candida albicans, UniProt A0A1D8PUA6+Q5A8Y5); assay: biochemical
T1 construct: RNA elongation assay on calf thymus DNA
Description: The following procedure is used for cell-free high-throughput screening. A Tomtec Quadra 96-well pipetting station is used to add the reaction components to polypropylene 96-well dishes. 5 μl aliquots of test compounds dissolved in DMSO (or DMSO alone as a control) are added to wells. This is followed by 20 μl of the RNA polymerase II mixture, which consists of: 10 mM DTT, 200 mM KCl, 10 mM Mn^+2, 1.5 μM bovine serum albumin, and 0.25 μg reconstituted RNA polymerase. After allowing the test compound to interact with the RNA polymerase, 25 μl of the DNA/NTP mixture is added, containing: 1 μg calf thymus DNA, 4 μM [α-^32 P]-UTP, and 400 μM each CTP, ATP, and GTP.
After incubation for 60 min at 30 C, the reaction is stopped by addition of 50 μl 15% trichloroacetic acid (TCA). The TCA-precipitated RNA is adsorbed onto double-thick glass fiber filtermats using a Tomtec cell harvester. The wells of the microtiter plate and the filter are washed twice with 5% TCA and bound radioactivity is determined using a Wallac microbeta 1450 scintillation counter.
Inhibitory activity due to the test compound is calculated according to the formula: [formula] where cpmpositive control represents the average of the cpm in wells that received DMSO alone, and cpmsample represents the cpm in the well that received test compound. Compounds that cause at least 50% inhibition are scored as positive "hits" in this assay.
DNA-directed RNA polymerase II from Candida albicans was purified in sufficient quantity to support high throughput screening of large synthetic chemical and natural product libraries. A biochemical mechanism-based screen for detecting inhibitors of Pol II was developed and implemented. The screen is outlined in FIGS. 4A and 4B.

[6] = system: C. albicans; assay: Time course of fungicidal activity, C. albicans; type: cell-based, Candida albicans
Excerpt: (§2) Compound 1 is rapidly fungicidal.

[7] = system: Fusarium culmorum; assay: MIC against plant pathogen; type: cell-based
[8] = Safety assessment on target panel
Description: (§3) A safety assessment of Compound 1 was conducted. The compound was negative for effects in a number of CNS, cardiovascular, intermediary metabolism, allergy/inflammation and gastrointestinal targets. The compound was nontoxic when administered orally at 300 mg/kg.

[9] = Safety assessment, oral toxicity; type: in vivo; conditions: orally at 300 mg/kg
Description: as §3

[10] = target: T2, human Pol II (Homo sapiens, UniProt P24928+P30876); assay: RNA polymerase II counterscreen, human pol II; type: biochemical
T2 construct: Pol II was isolated from Aspergillus nidulans, Saccharomyces cerevisiae, and human cells; endogenous in cells; enzyme isolated from them
Description: Pol II was isolated from Aspergillus nidulans, Saccharomyces cerevisiae, and human cells (FIG. 5) and used in secondary screens for fungal spectrum and specificity. Pol I and Pol III were isolated from Candida albicans and used as an additional mechanism to study specificity. Confirmed hits form the primary assay and were evaluated against this panel of polymerases. Agents with activity against Pol II from multiple fungal enzymes but not against the human counterpart were evaluated in vitro against fungal pathogens.

[11] = system: S. cerevisiae; assay: Time course of fungicidal activity, S. cerevisiae; type: cell-based, Saccharomyces cerevisiae
Excerpt: as §2

[12] = system: C. albicans; assay: Frequency of resistance study, C. albicans; type: cell-based, Candida albicans; conditions: selective concentrations 1× to 10× the MIC
Description: A frequency of resistance study is conducted for Compound 1 using C. albicans and S. cerevisiae, with amphotericin B as the comparator. Selective concentrations of each compound between 1× and 10× the MIC are used for each compound.

[13] = system: Candida strains resistance to ketoconazole or to amphotericin B; assay: Antifungal activity against resistant Candida strains; type: cell-based
[14] = system: systemic Candida infection; assay: Murine model for systemic candidiasis; type: in vivo, mouse
Description: (§4) In addition, Compound 1 was efficacious in a murine model for systemic candidiasis (FIG. 10). It prolonged mean and median survival times of treated mice in the dosage range of 5 mg/kg/d to 100 mg/kg/d on aq.d., d2-11 schedule. […] The efficacy of Compound 1 was confirmed in a separate experiment using amphotericin as a control (FIG. 11). Compound 1 was also efficacious when administered orally to mice with an established systemic Candida infection (FIG. 12). […] Compound 1 is also effective against systemic candidiasis caused by a strain of C. albicans resistant to fluconazole (FIG. 13). Additional animal testing will include acute toxicity determination, route and schedule dependency in standard efficacy models, efficacy testing in immunosuppressed Candida infected mice, efficacy in an Aspergillus infection model, and pharmacokinetics following IV and oral dosing.
(§5) Compound 6 was evaluated for antifungal efficacy in a systemic candidiasis model in immunocompetent mice (FIG. 18). The compound was administered IP on a q.d., d2-11 schedule. […] 90% long term survival was seen formice treated with Compound 6 at 200/mg/kg. 30% of mice survived when treated with Compound 6 at 100 mg/kg/d. Compound 6 was also effective against systemic candidiasis when administered orally (FIG. 19) and it was effective in treating infections caused by fluconazole-resistant C. albicans.

[15] = system: Trichophyton mentagrophytes; assay: Activity against human dermatophytic fungi; type: cell-based
[16] = system: monkey kidney cells; assay: Toxicity against monkey kidney cells; type: cell-based
[17] = system: C. albicans resistant to fluconazole; assay: Systemic candidiasis caused by fluconazole-resistant C. albicans; conditions: mouse, in vivo
Description: as §4, §5

[18] = Compound-related toxicity in treated mice; type: in vivo, mouse; conditions: IP or PO for 10 days at 100 mg/kg/d
Description: as §4, §5

T1 sequence (A0A1D8PUA6 1-1728): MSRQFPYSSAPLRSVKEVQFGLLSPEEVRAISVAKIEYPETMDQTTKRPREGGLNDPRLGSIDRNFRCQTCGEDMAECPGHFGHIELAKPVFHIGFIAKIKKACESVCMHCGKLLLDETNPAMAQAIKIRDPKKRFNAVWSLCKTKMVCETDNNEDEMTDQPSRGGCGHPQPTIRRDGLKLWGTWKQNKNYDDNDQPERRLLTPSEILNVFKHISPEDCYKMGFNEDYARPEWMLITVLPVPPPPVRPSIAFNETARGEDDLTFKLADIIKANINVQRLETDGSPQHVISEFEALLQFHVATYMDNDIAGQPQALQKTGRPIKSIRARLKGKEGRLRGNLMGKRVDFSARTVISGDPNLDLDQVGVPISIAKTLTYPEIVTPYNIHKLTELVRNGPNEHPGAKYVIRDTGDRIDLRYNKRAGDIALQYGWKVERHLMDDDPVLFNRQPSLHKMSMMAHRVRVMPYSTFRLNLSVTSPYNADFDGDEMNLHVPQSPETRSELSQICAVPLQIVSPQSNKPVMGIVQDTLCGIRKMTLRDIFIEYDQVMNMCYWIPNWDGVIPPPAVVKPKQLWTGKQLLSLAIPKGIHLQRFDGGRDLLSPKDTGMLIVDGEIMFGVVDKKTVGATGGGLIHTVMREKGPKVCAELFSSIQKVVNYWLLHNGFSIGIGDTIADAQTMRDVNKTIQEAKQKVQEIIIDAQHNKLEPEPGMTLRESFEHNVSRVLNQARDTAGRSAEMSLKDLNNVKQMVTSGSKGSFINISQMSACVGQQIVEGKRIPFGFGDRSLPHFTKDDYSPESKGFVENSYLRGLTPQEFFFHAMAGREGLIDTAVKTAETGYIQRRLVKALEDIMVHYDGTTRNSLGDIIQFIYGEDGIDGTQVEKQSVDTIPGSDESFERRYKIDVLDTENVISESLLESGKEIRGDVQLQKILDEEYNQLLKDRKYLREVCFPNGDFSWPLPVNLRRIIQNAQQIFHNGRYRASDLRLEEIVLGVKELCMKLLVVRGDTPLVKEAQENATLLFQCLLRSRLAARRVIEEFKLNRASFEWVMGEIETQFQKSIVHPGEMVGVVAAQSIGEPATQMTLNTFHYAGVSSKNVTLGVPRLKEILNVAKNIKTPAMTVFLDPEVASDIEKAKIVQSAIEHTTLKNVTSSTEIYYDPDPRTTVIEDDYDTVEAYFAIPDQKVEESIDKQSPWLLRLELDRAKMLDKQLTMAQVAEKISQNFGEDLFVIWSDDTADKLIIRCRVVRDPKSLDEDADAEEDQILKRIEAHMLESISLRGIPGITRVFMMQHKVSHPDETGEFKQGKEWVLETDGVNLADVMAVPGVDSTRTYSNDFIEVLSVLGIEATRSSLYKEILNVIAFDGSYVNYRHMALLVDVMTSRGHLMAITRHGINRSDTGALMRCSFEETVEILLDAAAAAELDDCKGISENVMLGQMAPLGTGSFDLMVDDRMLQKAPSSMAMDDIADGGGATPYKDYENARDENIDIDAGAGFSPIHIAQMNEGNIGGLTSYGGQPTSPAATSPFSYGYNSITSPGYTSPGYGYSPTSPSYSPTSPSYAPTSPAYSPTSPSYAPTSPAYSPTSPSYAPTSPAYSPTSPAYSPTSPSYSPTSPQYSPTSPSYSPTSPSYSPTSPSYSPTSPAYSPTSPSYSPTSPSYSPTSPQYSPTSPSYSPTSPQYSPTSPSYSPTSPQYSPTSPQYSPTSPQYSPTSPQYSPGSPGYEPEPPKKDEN
T1 sequence (Q5A8Y5 1-1234): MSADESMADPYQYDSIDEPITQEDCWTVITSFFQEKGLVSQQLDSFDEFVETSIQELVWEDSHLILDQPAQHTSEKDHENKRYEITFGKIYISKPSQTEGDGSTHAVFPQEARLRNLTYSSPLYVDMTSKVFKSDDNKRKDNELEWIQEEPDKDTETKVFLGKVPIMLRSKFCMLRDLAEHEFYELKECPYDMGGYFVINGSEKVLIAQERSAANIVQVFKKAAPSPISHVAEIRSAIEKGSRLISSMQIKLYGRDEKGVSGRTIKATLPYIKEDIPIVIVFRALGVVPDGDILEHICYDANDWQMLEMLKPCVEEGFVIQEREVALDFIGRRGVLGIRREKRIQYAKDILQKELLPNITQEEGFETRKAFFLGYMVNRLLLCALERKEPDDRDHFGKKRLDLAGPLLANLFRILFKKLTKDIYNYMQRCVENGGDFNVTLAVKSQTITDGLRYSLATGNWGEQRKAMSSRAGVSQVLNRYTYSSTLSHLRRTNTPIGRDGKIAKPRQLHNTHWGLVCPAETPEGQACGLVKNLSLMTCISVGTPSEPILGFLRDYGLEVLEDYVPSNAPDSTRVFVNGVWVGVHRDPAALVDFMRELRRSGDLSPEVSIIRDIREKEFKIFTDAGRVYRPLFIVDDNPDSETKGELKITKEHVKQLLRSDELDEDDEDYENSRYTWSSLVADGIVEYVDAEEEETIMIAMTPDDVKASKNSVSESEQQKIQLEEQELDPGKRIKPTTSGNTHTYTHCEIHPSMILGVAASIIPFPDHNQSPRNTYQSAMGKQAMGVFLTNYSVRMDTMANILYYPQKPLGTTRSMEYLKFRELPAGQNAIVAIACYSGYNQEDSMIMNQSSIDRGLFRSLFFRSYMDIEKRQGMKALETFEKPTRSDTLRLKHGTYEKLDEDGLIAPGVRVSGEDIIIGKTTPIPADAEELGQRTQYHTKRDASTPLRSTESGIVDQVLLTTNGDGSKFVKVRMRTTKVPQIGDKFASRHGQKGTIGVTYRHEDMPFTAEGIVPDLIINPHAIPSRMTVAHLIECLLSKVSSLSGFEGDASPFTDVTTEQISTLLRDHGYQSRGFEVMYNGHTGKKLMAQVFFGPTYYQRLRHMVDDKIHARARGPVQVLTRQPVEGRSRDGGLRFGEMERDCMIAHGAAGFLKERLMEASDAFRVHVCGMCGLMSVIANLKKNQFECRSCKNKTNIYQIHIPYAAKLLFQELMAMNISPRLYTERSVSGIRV

SMILES: CCCCN(CCO)c1ccc(N=Nc2c(Br)cc([N+](=O)[O-])cc2[N+](=O)[O-])c(C)c1 [Compound 2]
- fungicidal or fungistatic character [1]: does not appear to be fungicidal; also recorded: fungistatic rather than fungicidal
- MIC ([1]; in combination with amphotericin B, strain not named): 1 to 2 µg/mL
- synergy with amphotericin B [2]: not seen
- potency against Candida albicans in vitro [3]: relatively low potency
- synergy with amphotericin B [3]: act synergistically
- MIC ([3]; alone, ketoconazole resistant C. albicans): 80 µg/mL
- MIC ([3]; alone, wild type C. albicans): 80 µg/mL
- MIC ([3]; with sub-MIC amphotericin B (1/3 of the MIC), ketoconazole resistant C. albicans): 1 to 2 µg/mL
- MIC ([3]; with sub-MIC amphotericin B (1/3 of the MIC), wild type C. albicans): 1 to 2 µg/mL
- MIC ([4]; alone): 80 µg/mL
- MIC ([4]; with sub-MIC amphotericin B (1/3 of the MIC)): 1 to 2 µg/mL
- fungal Pol II inhibition [5]: potent inhibitor

SMILES: Oc1ccc(N=Nc2cccc(C(F)(F)F)c2)cc1 [Compound 1, 4-[-2-[3-(trifluoromethyl)phenyl]diazenyl]-phenol]
- exposure time after which no CFUs are recoverable ([6]; C. albicans cells): 5 min
- colony forming units after exposure ([6]; about 10^6 C. albicans cells, 25 μg/ml, 45 minutes): no detectable colony forming units
- MIC [7]: 6.25 µg/mL (≈ 23.5 µM)
- effects in safety assessment targets [8]: negative
- toxicity when administered orally [9]: nontoxic
- IC50 [10]: 43 µM
- exposure time after which no CFUs are recoverable ([11]; S. cerevisiae cells): 5 min
- colony forming units after exposure ([11]; about 10^6 S. cerevisiae cells, 25 μg/ml, 45 minutes): no detectable colony forming units
- in vitro antifungal activity / spectrum [1]: broad spectrum in vitro activity
- MIC ([1]; Table 1, antifungal activity, read-out: MIC): 16.6 µg/mL (≈ 62.4 µM)
- frequency of resistance [12]: < 1×10^-8
- antifungal activity against resistant Candida strains [13]: retains antifungal activity
- mean and median survival times of treated mice ([14]; 5 mg/kg/d to 100 mg/kg/d, q.d., d2-11): prolonged
- efficacy when administered orally ([14]; mice with an established systemic Candida infection, oral): efficacious
- recoverable colonies from the kidneys of treated animals ([14]; systemic candidiasis, mice): reduced
- activity against Trichophyton mentagrophytes [15]: active
- toxicity against monkey kidney cells [16]: essentially non-toxic
- fungal Pol II inhibition [5]: potent activity
- IC50 ([5]; Table 1, read-out: IC50 Candida pol II): 10 µM
- inhibition at 20 µM ([5]; at 20 μM, screening of azo library): 59%
- efficacy against systemic candidiasis caused by fluconazole-resistant C. albicans [17]: effective
- compound related toxicity [18]: No signs of compound related toxicity
